Data as given in patent publication US20230049952A1, “METHODS AND COMPOUNDS FOR RESTORING MUTANT P53 FUNCTION” (PMV Pharmaceuticals, Inc., priority 2020, published 2023).

Tested on: NF-κB signaling pathway in MT373 tumors
Test: MT373 syngeneic sarcoma model: mouse NF-κB signaling pathway profiling panel
Format: in vivo

CCn1c(C#CCNc2ccccc2)cc2cc(CNC3CCN(C)CC3)ccc21 [Compound 1, 1-Anilino-3-{1-ethyl-5-[(1-methyl-4-piperidylamino)methyl]-1H-indol-2-yl}-2-propyne]
Bcl2a1a fold increase over or percent reduction vs vehicle control (150 mg/kg BIDx1, 48 h): 67.64 ± 10.73 fold or % | Bcl2l1 fold increase over or percent reduction vs vehicle control (150 mg/kg BIDx1, 48 h): 7.49 ± 1.18 fold or % | Bcl3 fold increase over or percent reduction vs vehicle control (150 mg/kg BIDx1, 48 h): 1.35 ± 0.16 fold or % | Bcl10 fold increase over or percent reduction vs vehicle control (150 mg/kg BIDx1, 48 h): 36.06 ± 3.54 fold or % | Birc3 fold increase over or percent reduction vs vehicle control (150 mg/kg BIDx1, 48 h): 1.20 ± 0.28 fold or % | Card10 fold increase over or percent reduction vs vehicle control (150 mg/kg BIDx1, 48 h): 1.20 ± 0.11 fold or % | Card11 fold increase over or percent reduction vs vehicle control (150 mg/kg BIDx1, 48 h): 1.67 ± 0.42 fold or % | Casp1 fold increase over or percent reduction vs vehicle control (150 mg/kg BIDx1, 48 h): 10.29 ± 10.66 fold or % | Casp8 fold increase over or percent reduction vs vehicle control (150 mg/kg BIDx1, 48 h): 1.02 ± 0.01 fold or % | Ccl2 fold increase over or percent reduction vs vehicle control (150 mg/kg BIDx1, 48 h): 67.28 ± 5.26 fold or % | Ccl5 fold increase over or percent reduction vs vehicle control (150 mg/kg BIDx1, 48 h): 8.18 ± 19.38 fold or % | Cd27 fold increase over or percent reduction vs vehicle control (150 mg/kg BIDx1, 48 h): 1.46 ± 0.26 fold or % | Cd40 fold increase over or percent reduction vs vehicle control (150 mg/kg BIDx1, 48 h): 39.20 ± 14.39 fold or % | Cflar fold increase over or percent reduction vs vehicle control (150 mg/kg BIDx1, 48 h): 7.92 ± 8.21 fold or % | Chuk fold increase over or percent reduction vs vehicle control (150 mg/kg BIDx1, 48 h): 4.04 ± 12.31 fold or % | Crebbp fold increase over or percent reduction vs vehicle control (150 mg/kg BIDx1, 48 h): 1.12 ± 0.05 fold or % | Csf1 fold increase over or percent reduction vs vehicle control (150 mg/kg BIDx1, 48 h): 11.36 ± 7.30 fold or % | Csf2 fold increase over or percent reduction vs vehicle control (150 mg/kg BIDx1, 48 h): 62.24 ± 8.70 fold or % | Csf3 fold increase over or percent reduction vs vehicle control (150 mg/kg BIDx1, 48 h): 0.37 ± 11.46 fold or % | Egfr fold increase over or percent reduction vs vehicle control (150 mg/kg BIDx1, 48 h): 24.42 ± 4.76 fold or % | Egr1 fold increase over or percent reduction vs vehicle control (150 mg/kg BIDx1, 48 h): 42.64 ± 12.12 fold or % | Eif2ak2 fold increase over or percent reduction vs vehicle control (150 mg/kg BIDx1, 48 h): 1.01 ± 0.03 fold or % | Elk1 fold increase over or percent reduction vs vehicle control (150 mg/kg BIDx1, 48 h): 11.87 ± 8.21 fold or % | F2r fold increase over or percent reduction vs vehicle control (150 mg/kg BIDx1, 48 h): 19.79 ± 4.23 fold or % | Fadd fold increase over or percent reduction vs vehicle control (150 mg/kg BIDx1, 48 h): 7.23 ± 4.56 fold or % | Fasl fold increase over or percent reduction vs vehicle control (150 mg/kg BIDx1, 48 h): 5.96 ± 19.38 fold or % | Fos fold increase over or percent reduction vs vehicle control (150 mg/kg BIDx1, 48 h): 47.30 ± 7.08 fold or % | Hmox1 fold increase over or percent reduction vs vehicle control (150 mg/kg BIDx1, 48 h): 27.03 ± 7.50 fold or % | Icam1 fold increase over or percent reduction vs vehicle control (150 mg/kg BIDx1, 48 h): 3.83 ± 17.26 fold or % | Ifng fold increase over or percent reduction vs vehicle control (150 mg/kg BIDx1, 48 h): 43.46 ± 15.02 fold or % | Ikbkb fold increase over or percent reduction vs vehicle control (150 mg/kg BIDx1, 48 h): 1.24 ± 0.09 fold or % | Ikbke fold increase over or percent reduction vs vehicle control (150 mg/kg BIDx1, 48 h): 1.71 ± 28.42 fold or % | Ikbkg fold increase over or percent reduction vs vehicle control (150 mg/kg BIDx1, 48 h): 3.73 ± 5.88 fold or % | Il1a fold increase over or percent reduction vs vehicle control (150 mg/kg BIDx1, 48 h): 28.88 ± 7.08 fold or % | Il1b fold increase over or percent reduction vs vehicle control (150 mg/kg BIDx1, 48 h): 18.73 ± 5.15 fold or % | Il1r1 fold increase over or percent reduction vs vehicle control (150 mg/kg BIDx1, 48 h): 22.37 ± 5.01 fold or % | Il10 fold increase over or percent reduction vs vehicle control (150 mg/kg BIDx1, 48 h): 1.15 ± 0.09 fold or % | Irak1 fold increase over or percent reduction vs vehicle control (150 mg/kg BIDx1, 48 h): 1.00 ± 2.36 fold or % | Irak2 fold increase over or percent reduction vs vehicle control (150 mg/kg BIDx1, 48 h): 17.08 ± 1.54 fold or % | Irf1 fold increase over or percent reduction vs vehicle control (150 mg/kg BIDx1, 48 h): 7.15 ± 7.58 fold or % | Jun fold increase over or percent reduction vs vehicle control (150 mg/kg BIDx1, 48 h): 44.92 ± 3.26 fold or % | Lta fold increase over or percent reduction vs vehicle control (150 mg/kg BIDx1, 48 h): 57.16 ± 12.86 fold or % | Ltbr fold increase over or percent reduction vs vehicle control (150 mg/kg BIDx1, 48 h): 13.21 ± 2.85 fold or % | Map3k1 fold increase over or percent reduction vs vehicle control (150 mg/kg BIDx1, 48 h): 1.74 ± 0.24 fold or % | Mapk3 fold increase over or percent reduction vs vehicle control (150 mg/kg BIDx1, 48 h): 3.13 ± 7.94 fold or % | Myd88 fold increase over or percent reduction vs vehicle control (150 mg/kg BIDx1, 48 h): 1.17 ± 0.06 fold or % | Nfkb1 fold increase over or percent reduction vs vehicle control (150 mg/kg BIDx1, 48 h): 1.04 ± 0.04 fold or % | Nfkb2 fold increase over or percent reduction vs vehicle control (150 mg/kg BIDx1, 48 h): 1.17 ± 0.11 fold or % | Nfkbia fold increase over or percent reduction vs vehicle control (150 mg/kg BIDx1, 48 h): 1.14 ± 0.15 fold or % | Nod1 fold increase over or percent reduction vs vehicle control (150 mg/kg BIDx1, 48 h): 1.49 ± 0.08 fold or % | Raf1 fold increase over or percent reduction vs vehicle control (150 mg/kg BIDx1, 48 h): 0.48 ± 5.31 fold or % | Rel fold increase over or percent reduction vs vehicle control (150 mg/kg BIDx1, 48 h): 1.30 ± 0.16 fold or % | Rela fold increase over or percent reduction vs vehicle control (150 mg/kg BIDx1, 48 h): 1.07 ± 0.01 fold or % | Relb fold increase over or percent reduction vs vehicle control (150 mg/kg BIDx1, 48 h): 1.09 ± 0.07 fold or % | Ripk1 fold increase over or percent reduction vs vehicle control (150 mg/kg BIDx1, 48 h): 1.19 ± 0.07 fold or % | Ripk2 fold increase over or percent reduction vs vehicle control (150 mg/kg BIDx1, 48 h): 24.29 ± 6.23 fold or % | Slc20a1 fold increase over or percent reduction vs vehicle control (150 mg/kg BIDx1, 48 h): 40.28 ± 6.82 fold or % | Smad3 fold increase over or percent reduction vs vehicle control (150 mg/kg BIDx1, 48 h): 1.04 ± 0.08 fold or % | Stat1 fold increase over or percent reduction vs vehicle control (150 mg/kg BIDx1, 48 h): 1.36 ± 0.15 fold or % | Tbk1 fold increase over or percent reduction vs vehicle control (150 mg/kg BIDx1, 48 h): 1.01 ± 6.05 fold or % | Tlr1 fold increase over or percent reduction vs vehicle control (150 mg/kg BIDx1, 48 h): 1.63 ± 0.28 fold or % | Tlr2 fold increase over or percent reduction vs vehicle control (150 mg/kg BIDx1, 48 h): 1.24 ± 0.15 fold or % | Tlr3 fold increase over or percent reduction vs vehicle control (150 mg/kg BIDx1, 48 h): 1.00 ± 1.44 fold or % | Tlr4 fold increase over or percent reduction vs vehicle control (150 mg/kg BIDx1, 48 h): 6.31 ± 9.66 fold or % | Tlr6 fold increase over or percent reduction vs vehicle control (150 mg/kg BIDx1, 48 h): 1.33 ± 0.08 fold or % | Tlr9 fold increase over or percent reduction vs vehicle control (150 mg/kg BIDx1, 48 h): 1.92 ± 0.29 fold or % | Tnf fold increase over or percent reduction vs vehicle control (150 mg/kg BIDx1, 48 h): 56.86 ± 13.49 fold or % | Tnfaip3 fold increase over or percent reduction vs vehicle control (150 mg/kg BIDx1, 48 h): 1.26 ± 0.33 fold or % | Tnfrsf1a fold increase over or percent reduction vs vehicle control (150 mg/kg BIDx1, 48 h): 1.35 ± 0.08 fold or % | Tnfrsf1b fold increase over or percent reduction vs vehicle control (150 mg/kg BIDx1, 48 h): 1.66 ± 0.08 fold or % | Tnfrsf10b fold increase over or percent reduction vs vehicle control (150 mg/kg BIDx1, 48 h): 11.34 ± 5.36 fold or % | Tnfsf10 fold increase over or percent reduction vs vehicle control (150 mg/kg BIDx1, 48 h): 16.58 ± 3.82 fold or % | Tnfsf14 fold increase over or percent reduction vs vehicle control (150 mg/kg BIDx1, 48 h): 1.53 ± 0.40 fold or % | Tollip fold increase over or percent reduction vs vehicle control (150 mg/kg BIDx1, 48 h): 2.45 ± 1.53 fold or % | Tradd fold increase over or percent reduction vs vehicle control (150 mg/kg BIDx1, 48 h): 1.01 ± 0.06 fold or % | Traf2 fold increase over or percent reduction vs vehicle control (150 mg/kg BIDx1, 48 h): 7.23 ± 7.66 fold or % | Traf3 fold increase over or percent reduction vs vehicle control (150 mg/kg BIDx1, 48 h): 13.20 ± 10.35 fold or % | Traf5 fold increase over or percent reduction vs vehicle control (150 mg/kg BIDx1, 48 h): 2.99 ± 3.31 fold or % | Traf6 fold increase over or percent reduction vs vehicle control (150 mg/kg BIDx1, 48 h): 1.07 ± 0.12 fold or % | Zap70 fold increase over or percent reduction vs vehicle control (150 mg/kg BIDx1, 48 h): 1.45 ± 0.41 fold or % | Agt fold increase over or percent reduction vs vehicle control (150 mg/kg BIDx1, 72 h): 2.05 ± 0.66 fold or % | Akt1 fold increase over or percent reduction vs vehicle control (150 mg/kg BIDx1, 72 h): 1.06 ± 0.07 fold or % | Atf1 fold increase over or percent reduction vs vehicle control (150 mg/kg BIDx1, 72 h): 34.00 ± 7.86 fold or % | Atf2 fold increase over or percent reduction vs vehicle control (150 mg/kg BIDx1, 72 h): 8.53 ± 13.61 fold or % | Bcl2a1a fold increase over or percent reduction vs vehicle control (150 mg/kg BIDx1, 72 h): 48.45 ± 28.65 fold or % | Bcl2l1 fold increase over or percent reduction vs vehicle control (150 mg/kg BIDx1, 72 h): 1.06 ± 0.18 fold or % | Bcl3 fold increase over or percent reduction vs vehicle control (150 mg/kg BIDx1, 72 h): 1.22 ± 0.24 fold or % | Bcl10 fold increase over or percent reduction vs vehicle control (150 mg/kg BIDx1, 72 h): 23.25 ± 7.71 fold or % | Birc3 fold increase over or percent reduction vs vehicle control (150 mg/kg BIDx1, 72 h): 1.13 ± 0.28 fold or %
